Reference: ChEMBL document CHEMBL5365473, “Novel Sulfonylurea-Based NLRP3 Inflammasome Inhibitor for Efficient Treatment of Nonalcoholic Steatohepatitis, Endotoxic Shock, and Colitis” (J Med Chem, 2023)
Activity calls are given as the source filed them. The calls are words filed in the database; no cut-off is given here.

Key:
Mus musculus [1] = assay: Antiinflammatory activity against MCD diet-induced NASH C57BL/6 mouse model assessed as reduction in TUNEL-positive hepatic cells at 40 mg/kg, po administered via gavage for 5 weeks by TUNEL assay; assay type: functional, organism-based
[2] = Toxicity against male ICR mouse assessed as effect on kidney weight at 200 to 500 mg/kg administered via gavage for 12 days; assay type: organism-based; conditions: in vivo, po, 288 h, dose 200-500 mg/kg, time 12 day
[3] = Effect on immune cell numbers in MCS diet-fed C57BL/6 mouse assessed as effect on CD45 expression at 40 mg/kg, po administered via gavage for 5 weeks by immunofluorescence staining based analysis; assay type: toxicity, organism-based; conditions: in vivo, 840 h
Mus musculus [4] = assay: Antiinflammatory activity against DSS-induced ulcerative colitis C57BL/6 mouse assessed as reduction in mucosal barrier disruption in colon at 10 mg/kg, ip administered for 9 days and measured on day 10 by H and E staining based analysis; assay type: functional, organism-based; conditions: time 10.0 day
[5] = Toxicity against female ICR mouse assessed as effect on lung weight at 200 to 500 mg/kg administered via gavage for 12 days; assay type: organism-based; conditions: in vivo, po, 288 h, dose 200-500 mg/kg, time 12 day
[6] = target: NACHT, LRR and PYD domains-containing protein 3 (Homo sapiens) (UniProt Q96P20); assay: Inhibition of NLRP3 inflammasome in PMA-induced differentiated human THP-1 cells assessed as inhibition of caspase-1 activation primed with LPS for 4.5 hrs followed by incubation with compound for 2.5 hrs and later stimulated with ATP for 1 hr by immunoblot analysis; assay type: cell-based; conditions: dose 3-30 nM, time 3.5 hrs
[7] = MRT (0 to infinity) in ICR mouse at 10 mg/kg, po by LC-MS/MS analysis; assay type: ADME, organism-based; conditions: in vivo
[8] = Toxicity against male ICR mouse assessed as effect on plasma ALT level at 200 to 500 mg/kg administered via gavage for 12 days; assay type: organism-based; conditions: in vivo, po, 288 h, dose 200-500 mg/kg, time 12 day
[9] = Toxicity against female ICR mouse assessed as effect on kidney weight at 200 to 500 mg/kg administered via gavage for 12 days; assay type: organism-based; conditions: in vivo, po, 288 h, dose 200-500 mg/kg, time 12 day
[10] = Half life in ICR mouse at 5 mg/kg, iv by LC-MS/MS analysis; assay type: ADME, organism-based; conditions: in vivo
[11] = Effect on immune cell numbers in MCS diet-fed C57BL/6 mouse assessed as effect on F4/80 expression at 40 mg/kg, po administered via gavage for 5 weeks by immunofluorescence staining based analysis; assay type: toxicity, organism-based; conditions: in vivo, 840 h
Mus musculus [12] = assay: Antiinflammatory activity against MCD diet-induced NASH C57BL/6 mouse model assessed as reduction in immune cell infiltration by measuring reduction in F4/80-positive hepatic cells at 40 mg/kg, po administered via gavage for 5 weeks by immunofluorescence staining based analysis; assay type: functional, organism-based
[13] = target: NACHT, LRR and PYD domains-containing protein 3 (Mus musculus) (UniProt Q8R4B8); assay: Inhibition of NLRP3 inflammasome in mouse J774.A1 cells assessed as inhibition of caspase-1 activation at 30 nM primed with LPS for 4.5 hrs followed by incubation with compound for 24 hrs and later stimulated with nigericin for 1 hr by immunoblot analysis; assay type: cell-based; conditions: time 25.0 hrs
[14] = Toxicity against male ICR mouse assessed as effect on spleen weight at 200 to 500 mg/kg administered via gavage for 12 days; assay type: organism-based; conditions: in vivo, po, 288 h, dose 200-500 mg/kg, time 12 day
Mus musculus [15] = assay: Antiinflammatory activity against DSS-induced ulcerative colitis C57BL/6 mouse assessed as reduction in crypt necrosis in colon at 10 mg/kg, ip administered for 9 days and measured on day 10 by H and E staining based analysis; assay type: functional, organism-based; conditions: time 10.0 day
Mus musculus [16] = assay: Antiinflammatory activity against DSS-induced ulcerative colitis C57BL/6 mouse assessed as reduction in massive loss of goblet cells in colon at 10 mg/kg, ip administered for 9 days and measured on day 10 by H and E staining based analysis; assay type: functional, organism-based; conditions: time 10.0 day
[17] = Toxicity against male ICR mouse assessed as effect on body weight at 200 to 500 mg/kg administered via gavage for 12 days; assay type: organism-based; conditions: in vivo, po, 288 h, dose 200-500 mg/kg, time 12 day
Mus musculus [18] = assay: Antiinflammatory activity against DSS-induced ulcerative colitis C57BL/6 mouse assessed as reduction in colon length shortening at 10 mg/kg, ip administered for 9 days and measured on day 10; assay type: functional, organism-based; conditions: time 10.0 day
[19] = Toxicity against male ICR mouse assessed as effect on lung weight at 200 to 500 mg/kg administered via gavage for 12 days; assay type: organism-based; conditions: in vivo, po, 288 h, dose 200-500 mg/kg, time 12 day
Mus musculus [20] = assay: Antiinflammatory activity against MCD diet-induced NASH C57BL/6 mouse model assessed as improvement in liver morphology at 40 mg/kg, po administered via gavage for 5 weeks by Masson's trichrome staining based analysis; assay type: functional, organism-based
Mus musculus [21] = assay: Antiinflammatory activity against MCD diet-induced NASH C57BL/6 mouse model assessed as reduction in balloon dilatation in liver at 40 mg/kg, po administered via gavage for 5 weeks by Sirius red staining based analysis; assay type: functional, organism-based
J774.A1 = assay: Effect on pro-IL-1 beta protein expression in mouse J774.A1 cells at 3 to 30 nM primed with LPS for 4.5 hrs followed by incubation with compound for 2.5 hrs and later stimulated with ATP for 30 mins by immunoblot analysis; assay type: functional, cell-based; conditions: dose 3-30 nM, time 3.0 hrs
[22] = Toxicity against female ICR mouse assessed as effect on spleen weight at 200 to 500 mg/kg administered via gavage for 12 days; assay type: organism-based; conditions: in vivo, po, 288 h, dose 200-500 mg/kg, time 12 day
[23] = Tmax in ICR mouse at 5 mg/kg, iv by LC-MS/MS analysis; assay type: ADME, organism-based; conditions: in vivo
Mus musculus [24] = assay: Antiinflammatory activity against MCD diet-induced NASH C57BL/6 mouse model assessed as protection against MCD diet-induced increase in liver to body weight ratio at 40 mg/kg, po administered via gavage for 5 weeks; assay type: functional, organism-based
[25] = Toxicity against female ICR mouse assessed as effect on ratio of plasma AST to ALT level at 200 to 500 mg/kg administered via gavage for 12 days; assay type: organism-based; conditions: in vivo, po, 288 h, dose 200-500 mg/kg, time 12 day
[26] = Toxicity against male ICR mouse assessed as effect on brain weight at 200 to 500 mg/kg administered via gavage for 12 days; assay type: organism-based; conditions: in vivo, po, 288 h, dose 200-500 mg/kg, time 12 day
[27] = Toxicity against male ICR mouse assessed as effect on heart weight at 200 to 500 mg/kg administered via gavage for 12 days; assay type: organism-based; conditions: in vivo, po, 288 h, dose 200-500 mg/kg, time 12 day
[28] = Drug uptake in Sprague-Dawley rat muscle at 50 mg/kg, po measured for 24 hrs by LC-MS/MS analysis; assay type: ADME, organism-based, Muscle tissue; conditions: in vivo
Mus musculus [29] = assay: Antiinflammatory activity against MCD diet-induced NASH C57BL/6 mouse model assessed as reduction in liver fibrosis at 40 mg/kg, po administered via gavage for 5 weeks by Masson's trichrome staining based analysis; assay type: functional, organism-based
[30] = Toxicity against male ICR mouse assessed as effect on plasma AST level at 200 to 500 mg/kg administered via gavage for 12 days; assay type: organism-based; conditions: in vivo, po, 288 h, dose 200-500 mg/kg, time 12 day

Sequence of NACHT, LRR and PYD domains-containing protein 3 (Homo sapiens) (Q96P20 whole entry, the tested form may be a part): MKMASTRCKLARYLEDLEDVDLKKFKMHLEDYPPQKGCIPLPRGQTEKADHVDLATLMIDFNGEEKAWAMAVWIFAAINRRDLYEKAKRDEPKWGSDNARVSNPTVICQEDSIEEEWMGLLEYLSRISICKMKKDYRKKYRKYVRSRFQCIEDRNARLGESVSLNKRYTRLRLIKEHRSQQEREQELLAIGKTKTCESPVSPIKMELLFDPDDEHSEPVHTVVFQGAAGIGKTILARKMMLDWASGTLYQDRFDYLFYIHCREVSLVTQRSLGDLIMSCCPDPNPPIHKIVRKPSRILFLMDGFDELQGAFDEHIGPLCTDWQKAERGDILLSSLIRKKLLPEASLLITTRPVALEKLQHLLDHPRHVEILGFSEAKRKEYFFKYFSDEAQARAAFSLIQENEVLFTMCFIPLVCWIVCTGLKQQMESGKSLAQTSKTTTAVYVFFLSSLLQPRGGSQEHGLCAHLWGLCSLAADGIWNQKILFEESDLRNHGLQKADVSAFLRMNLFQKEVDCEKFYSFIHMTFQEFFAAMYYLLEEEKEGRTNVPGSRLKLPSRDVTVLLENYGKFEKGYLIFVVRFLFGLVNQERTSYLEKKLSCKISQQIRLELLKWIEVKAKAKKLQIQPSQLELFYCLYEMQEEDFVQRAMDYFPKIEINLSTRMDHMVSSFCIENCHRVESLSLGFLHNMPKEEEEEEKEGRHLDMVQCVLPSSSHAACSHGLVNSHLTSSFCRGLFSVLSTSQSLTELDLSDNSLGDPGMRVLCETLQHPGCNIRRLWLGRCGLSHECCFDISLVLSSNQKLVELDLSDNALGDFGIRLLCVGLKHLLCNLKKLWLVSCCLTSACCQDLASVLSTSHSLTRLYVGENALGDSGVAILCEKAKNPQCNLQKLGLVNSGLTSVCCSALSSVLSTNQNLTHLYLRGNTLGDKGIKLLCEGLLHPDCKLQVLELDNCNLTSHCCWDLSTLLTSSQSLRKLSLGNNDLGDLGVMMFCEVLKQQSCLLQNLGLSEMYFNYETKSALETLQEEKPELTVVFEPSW
Sequence of NACHT, LRR and PYD domains-containing protein 3 (Mus musculus) (Q8R4B8 whole entry, the tested form may be a part): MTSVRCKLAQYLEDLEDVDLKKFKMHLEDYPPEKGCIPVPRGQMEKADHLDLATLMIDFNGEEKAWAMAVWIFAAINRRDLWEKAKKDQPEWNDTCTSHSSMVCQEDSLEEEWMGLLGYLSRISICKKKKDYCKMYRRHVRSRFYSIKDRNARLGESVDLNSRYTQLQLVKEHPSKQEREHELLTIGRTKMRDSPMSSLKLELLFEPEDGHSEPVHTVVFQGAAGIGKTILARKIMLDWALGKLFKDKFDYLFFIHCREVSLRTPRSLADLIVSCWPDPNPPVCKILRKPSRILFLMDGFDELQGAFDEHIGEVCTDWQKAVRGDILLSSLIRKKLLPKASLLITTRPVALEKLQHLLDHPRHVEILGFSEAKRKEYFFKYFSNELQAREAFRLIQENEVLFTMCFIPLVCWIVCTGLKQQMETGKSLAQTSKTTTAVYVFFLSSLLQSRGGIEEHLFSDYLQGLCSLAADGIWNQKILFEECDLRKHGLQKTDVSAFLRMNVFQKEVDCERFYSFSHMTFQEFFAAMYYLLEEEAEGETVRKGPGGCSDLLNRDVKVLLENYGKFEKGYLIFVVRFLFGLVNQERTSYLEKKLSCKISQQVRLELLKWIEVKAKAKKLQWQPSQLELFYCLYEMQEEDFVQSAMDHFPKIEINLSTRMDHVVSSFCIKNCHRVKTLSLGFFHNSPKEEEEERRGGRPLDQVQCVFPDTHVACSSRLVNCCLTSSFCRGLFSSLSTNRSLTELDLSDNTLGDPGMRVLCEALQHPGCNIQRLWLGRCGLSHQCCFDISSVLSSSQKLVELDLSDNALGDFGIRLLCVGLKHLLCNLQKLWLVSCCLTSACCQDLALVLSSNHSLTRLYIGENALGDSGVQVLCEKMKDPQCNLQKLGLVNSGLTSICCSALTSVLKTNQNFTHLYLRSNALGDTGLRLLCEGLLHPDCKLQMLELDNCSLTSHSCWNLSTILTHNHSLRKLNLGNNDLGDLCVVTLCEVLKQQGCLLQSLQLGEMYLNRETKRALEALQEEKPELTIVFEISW

For `CN(C)Cc1ccc(S(=O)(=O)NC(=O)Nc2c3c(cc4c2CCC4)CCC3)cc1`, the Activity (Mus musculus [1]) was “Active”, the Activity [2] was “Non-Toxic” and the Activity [3] was “Non-Toxic”. For the same compound, the Activity (Mus musculus [4]) was “Active”, the Activity [5] was “Non-Toxic” and the inhibition [6] was “Dose-Dependent Effect”. For the same compound, the MRT inf [7] was 4.79 h, the Activity [8] was “Non-Toxic” and the Activity [9] was “Non-Toxic”. The half-life [10] was 4.01 h, the Activity [11] was “Non-Toxic” and the Activity (Mus musculus [12]) was “Active”. For the same compound, the inhibition [13] was “Active”, the Activity [14] was “Non-Toxic” and the Activity (Mus musculus [15]) was “Active”. For the same compound, the Activity (Mus musculus [16]) was “Active”, the Activity [17] was “Non-Toxic” and the Activity (Mus musculus [18]) was “Active”. For the same compound, the Activity [19] was “Non-Toxic”, the Activity (Mus musculus [20]) was “Active” and the Activity (Mus musculus [21]) was “Active”. The Activity (J774.A1) was “inactive”, the Activity [22] was “Non-Toxic” and the Tmax [23] was 4.98 min. For the same compound, the Activity (Mus musculus [24]) was “Active”, the Activity [25] was “Non-Toxic” and the Activity [26] was “Non-Toxic”. The Activity [27] was “Non-Toxic”, the Drug uptake [28] was “Active” and the Activity (Mus musculus [29]) was “Active”. The Activity [30] was “Non-Toxic”.
